# In patent US6291247A, “Methods of screening for factors that disrupt neurotrophin conformation and reduce neurotrophin biological activity” (priority 1996, dated 2001):
# Entries after “also recorded” stand apart in the source; their conditions may differ. Bridges are numbered along the chain shown (N, C = ends).
# Experiments:
# [1] = test system: DRG neurons; assay: BDNF-dependent neurite outgrowth of DRG neurons; format: cell-based, chick; conditions: n = 8
# Protocol: Dissosiated cells enriched for sensory neurons were prepared from ED8 chick DRG as described (Dostaler, S. M. et al. Characterization of a distinctive motif of the low molecular weight neurotrophin receptor that modulates NGF-mediated neurite growth. Eur. J. Neurosci. 8, 870-879 (1996)). Neurons were seeded at a density of 800-1000 cells/well in Ham's F-12 containing 5% FCS and NGF at 10 pM into wells of Terasaki plates treated with polyysine. The cells were incubated with the indicated additives at 37° C. in a 5% CO2 atmosphere. The cells on the entire lower horizontal surface of the well were scored for neurite growth at 18-20 hours using an inverted microscope fitted with phase contrast optics. A neurite was scored if its caliber from the origin to terminal was constant and its length was equal to or greater than 1.5 cell body diameters. Neurite growth was corrected for background (no NGF).
# (§1) Human recombinant BDNF and human recombinant NT-3 were obtained from Alomone Laboratories (Israel). The iodination, crosslinking, and binding experiments using BDNF and NT-3 were performed using the methods described above for NGF. Neurite outgrowth assays were performed as described in the presence of 4.0 nM NT-3 or 8.0 nM BDNF.
# [2] = test system: p75^NTR; assay: 125I-BDNF binding to p75NTR; conditions: 100 μM Zn2+, n = 3; 120 min
# Protocol: (§2) Full length (1-118) mouse NGF purified by HPLC from 2.5S NGF (purity greater than 95%) was obtained from Cedarlane Laboratories (Toronto, Ont). The iodination of NGF was performed as previously described (Sutter, A, Riopelle, R. J., Harris-Warrick, R. M. & Shooter, E. M. Nerve growth factor receptors. J. Biol. Chem. 254, 5972-5982 (1979)). […] PC12 cells were grown in RPMI with 10% heat inactivated donor horse serum and 5% fetal calf serum. Each data point was set up in a single tube containing ^125 I-NGF (at the required concentration), 400,000 cells (for a final call concentration of 10^6 /ml), BDNF (at 40 nM for TrkA binding) and NGF (at 10 nM for non-specific binding) as required. The tubes were incubated for 2 hr at 4° C. and 100 μl aliquots (providing triplicate data points for each sample) were transferred to 400 μl microcentrifuges containing 200 μl of 10% glycerol in HKR. Tubes were centrifuged for 2 minutes at 5,000 rpm, the tip containing the cell pellet cut off and radioactivity bound to the cells was determined.
# as §1
# [3] = test system: PC12 cells; assay: Toxicity to PC12 cells; format: cell-based, rat
# [4] = test system: p75^NTR /TrkA; assay: Receptor crosslinking of 125I-NGF with transition metal ions (receptor selectivity); format: binding
# [5] = test system: p75^NTR; assay: 125I-NT-3 binding to p75NTR; conditions: 100 μM Zn2+, n = 3; 120 min
# Protocol: as §2, §1
# [6] = test system: NT-3; conditions: Rashid et al. 1995; cited from earlier work
# [7] = test system: BDNF; conditions: Rashid et al. 1995; cited from earlier work
# [8] = test system: dorsal root ganglion (DRG) neurons; assay: NGF-dependent neurite growth of ED8 chick DRG neurons (FIG. 6, Terasaki plates); format: cell-based
# Protocol: FIG. 6 is a graph showing the ability of R11 to inhibit the activity of NGF in vitro using a biological assay system. […] Dissociated cells enriched for sensory neurons were prepared from embryonic day 8 (ED8) chick dorsal root ganglion (DRG) as described (Sutter et al., J. Biol. Chem. 254: 5972-5982 (1979)). Neurons were seed into wells of Terasaki plates treated sequentially with poly-D-lysine and laminin at a density of 800-1000 cells/well in "synthetic" Dulbecco's modified Eagle medium (Bottenstein et al., Proc. Natl. Acad. Sci. USA 76: 514-517 (1979)) containing 1% fetal calf serum and NGF at […]. The cells were incubated with the additives indicated at 37° C. in a 5% CO2 atmosphere At 18-20 hours, the cells were fixed in 4% formaldehyde in phosphate-buffered saline and scored for neurite growth. The cells on the entire lower horizontal surface of the well were counted using an inverted microscope fitted with phase contrast optics. A neurite was scored if its caliber from origin to terminal was constant and its length was equal to or greater than 1.5 cell body diameters. Neurite growth was corrected for background (no NGF) growth in the presence and absence of peptide.
# Such a profile is not typical of a competitive inhibitor. That is, a different dose response profile would be expected if R11 were simply competing with NGF for binding to a receptor. Neither of the less constrained synthetic Intermediates of R11, i.e., R11 (linear) or R11 (monocyclic), was as effective in blocking NGF-dependent neurite growth concentrations up to 200 μM.
# Sequence of p75^NTR /TrkA (P01139 122-239): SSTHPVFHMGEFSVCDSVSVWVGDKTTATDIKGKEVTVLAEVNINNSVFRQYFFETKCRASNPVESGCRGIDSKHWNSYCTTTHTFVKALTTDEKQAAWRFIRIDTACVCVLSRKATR
# Sequence of p75^NTR /TrkA (P07174 30-425 partner): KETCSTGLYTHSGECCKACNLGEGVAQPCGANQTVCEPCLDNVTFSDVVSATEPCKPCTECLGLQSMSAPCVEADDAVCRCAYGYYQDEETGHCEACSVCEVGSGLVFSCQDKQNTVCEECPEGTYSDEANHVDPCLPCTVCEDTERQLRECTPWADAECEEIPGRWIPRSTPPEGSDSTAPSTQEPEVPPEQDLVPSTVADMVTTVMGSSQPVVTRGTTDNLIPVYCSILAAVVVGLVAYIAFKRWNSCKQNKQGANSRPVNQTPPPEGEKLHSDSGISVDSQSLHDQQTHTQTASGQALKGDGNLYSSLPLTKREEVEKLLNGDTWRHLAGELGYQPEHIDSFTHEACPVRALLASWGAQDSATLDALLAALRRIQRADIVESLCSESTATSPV
# Sequence of p75^NTR /TrkA (P35739 33-799 partner): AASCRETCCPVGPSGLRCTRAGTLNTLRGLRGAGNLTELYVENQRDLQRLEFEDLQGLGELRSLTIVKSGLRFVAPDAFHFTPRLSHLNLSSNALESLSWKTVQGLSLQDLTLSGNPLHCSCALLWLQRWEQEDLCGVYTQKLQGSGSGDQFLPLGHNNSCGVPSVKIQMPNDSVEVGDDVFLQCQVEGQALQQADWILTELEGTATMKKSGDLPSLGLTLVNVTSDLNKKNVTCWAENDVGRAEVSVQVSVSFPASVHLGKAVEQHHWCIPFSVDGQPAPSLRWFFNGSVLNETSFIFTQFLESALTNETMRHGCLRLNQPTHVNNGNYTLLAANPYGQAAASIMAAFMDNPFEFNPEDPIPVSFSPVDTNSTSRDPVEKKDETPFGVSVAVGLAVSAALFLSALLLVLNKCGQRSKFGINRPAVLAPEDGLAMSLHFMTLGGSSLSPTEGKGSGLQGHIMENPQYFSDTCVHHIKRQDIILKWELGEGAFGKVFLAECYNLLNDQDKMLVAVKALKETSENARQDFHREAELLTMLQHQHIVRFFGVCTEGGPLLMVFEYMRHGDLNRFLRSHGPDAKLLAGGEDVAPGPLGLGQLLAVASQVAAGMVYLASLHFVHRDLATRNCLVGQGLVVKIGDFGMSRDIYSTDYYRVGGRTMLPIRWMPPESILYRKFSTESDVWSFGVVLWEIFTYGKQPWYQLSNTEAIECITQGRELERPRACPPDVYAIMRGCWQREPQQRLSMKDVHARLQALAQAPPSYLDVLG
Molecule,"Neurite Outgrowth, BDNF (8.0 nM) ([1]; 30 μM Zn2+)","Neurite Outgrowth, BDNF (8.0 nM) ([1]; 50 μM Zn2+)","% Maximum p75NTR binding, 125I-BDNF [2] [% Maximum binding]",Toxicity (PC12 cell viability) ([3]; 100 μM) [% control],"Toxicity to PC12 cells ([3]; in presence of serum, up to 100 μM)",Blocking of NGF binding to TrkA and p75NTR in receptor crosslinking [4],"% Maximum p75NTR binding, 125I-NT-3 [5] [% Maximum binding]",Antagonism of NT-3 in vitro [6],Antagonism of BDNF in vitro [7],Block of NGF-mediated neurite growth ([8]; 100 μM) [%],"IC50 ([8]; ED8 chick DRG neurons, FIG. 6, read-out: IC50, inhibition of NGF-dependent neurite growth) [µM]",Block of NGF-mediated neurite growth ([8]; concentration similar to 200 μM)
[Zn+2] [Zn^2+],30.0 ± 13.3 % Maximum process bearing neur,1.4 ± 1.4 % Maximum process bearing neur,10.0 ± 4.5,97 ± 11,no loss in cell viability; also recorded: not toxic,blocked binding to both receptors,13.3 ± 9.5,,,,,
"NH2 -Cys-Gly-Ser-Glu-Val-Pro-Asn-Ser-Ala-Arg-Cys-Cys-Val-Cys-OH (H-CGSEVPNSARCCVC-OH; disulfide 1-14, 11-12) [R11, bicyclic peptide of NGF residues 68-58/108-110, two disulfide bonds]",,,,,,,,effective antagonist,effective antagonist,70,10,virtually all
